Measured values: US20170007700A1, “COMPOSITIONS AND METHODS FOR BORON NEUTRON CAPTURE THERAPY” (THE CURATORS OF THE UNIVERSITY OF MISSOURI, priority 2014, published 2017)

Experiment: Metabolic transformation of TAC and MAC in vivo (MALDI-MS of mouse urine)
Set-up: species or system mice
Settings: for metabolic degradation in vivo: mice given TAC/MAC liposomes
From the text: One of the components of in vivo biodistribution study of TAC/MAC liposomes in mice was identification of any metabolic transformation of either TAC or MAC in the body. Metabolic degradation of TAC was not observed in vivo. […] Three main metabolites of MAC were identified in mouse urine by matrix-assisted laser desorption […] mass spectrometry (MALDI-MS) analysis and are illustrated in FIG. 4.

Row | Substance | metabolic degradation in vivo | main metabolites identified in mouse urine (MALDI-MS)
1 | Na3[1-(2′-B10H9)-2-NH3B10H8] [TAC] | not observed | 
2 | K[nido-7-CH3(CH2)15-7,8-C2B9H11] [MAC] | expelled without change | Three
